“And” between values parts separate entries of the source, which are not always exact repeats. Equal values may be shown once. Read-outs that look alike come from different tables or passages of the source.
Columns and labels:
Assay type in all cases: in vivo, mice
[1] = tested on: M. tuberculosis strain H37Rv; conditions: for CFUs of BCG per ml of Lung Homogenate, MEAN / CFUs of BCG per ml of Lung Homogenate, MEDIAN / CFUs of BCG per ml of Lung Homogenate, individual mice M1-M5: day 61
[2] = tested on: IL-2 production by ConA-stimulated thymic cells; assay: IL-2 production by ConA-stimulated thymic cells (IL-2-dependent CTLL-2 bioassay)
Text: Considering that significant enhancement of proliferation by SCV-07 might be due to its influence on IL-2 production, IL-2 activity was studied with the IL-2-dependent CTLL-2 line.

[3] = tested on: IFN-γ production by ConA-stimulated splenocytes; assay: IFN-γ production by ConA-stimulated splenocytes (EIA)
[4] = group 3: BCG + 0.01 μg SCV-07 D1-D5
[5] = group 4: BCG + 0.01 μg SCV-07 D1-D30
[6] = group 5: BCG + 0.01 μg SCV-07 D1-5, D7, 11, 14, 18, 21, 25, 28
[7] = group 6: BCG + 0.01 μg SCV-07 D6-D30
[8] = group 7: BCG + 0.20 μg SCV-07 D1-D5
[9] = group 8: BCG + 0.20 μg SCV-07 D1-D30
[10] = group 9: BCG + 0.20 μg SCV-07 D1-5, D7, 11, 14, 18, 21, 25, 28
[11] = group 10: BCG + 0.20 μg SCV-07 D6-D30
[12] = group 11: BCG + 2.0 μg SCV-07 D1-D5
[13] = group 12: BCG + 2.0 μg SCV-07 D1-D30
[14] = group 13: BCG + 2.0 μg SCV-07 D1-5, D7, 11, 14, 18, 21, 25, 28
[15] = group 14: BCG + 2.0 μg SCV-07 D6-D30
[16] = ConA 1 μg/ml, 0.01 μg/kg per os
[17] = ConA 1 μg/ml, 10.0 μg/kg per os
[18] = ConA 1 μg/ml, 100.0 μg/kg per os

N[C@H](CCC(=O)N[C@@H](Cc1c[nH]c2ccccc12)C(=O)O)C(=O)O [SCV-07, γ-D-glutamyl-L-tryptophan]
dose with optimal enhancing effect of SCV-07 for vaccination with BCG ([1]; about 8-10 μg/kg): 0.20 µg
CFUs of BCG per ml of Lung Homogenate, MEAN [1, 4]: 5.0 log10 CFU per milliliter
CFUs of BCG per ml of Lung Homogenate, MEDIAN [1, 4]: 4.9 log10 CFU per milliliter
CFUs of BCG per ml of Lung Homogenate, individual mice M1-M5 [1, 4]: 4.8 log10 CFU per milliliter (2×) and 5.3 log10 CFU per milliliter (2×) and 4.9 log10 CFU per milliliter
CFUs of BCG per ml of Lung Homogenate, MEAN [1, 5]: 4.8 log10 CFU per milliliter
CFUs of BCG per ml of Lung Homogenate, MEDIAN [1, 5]: 4.9 log10 CFU per milliliter
CFUs of BCG per ml of Lung Homogenate, individual mice M1-M5 [1, 5]: 5.1 log10 CFU per milliliter and 4.8 log10 CFU per milliliter and 5.0 log10 CFU per milliliter and 4.3 log10 CFU per milliliter
CFUs of BCG per ml of Lung Homogenate, MEAN [1, 6]: 4.9 log10 CFU per milliliter
CFUs of BCG per ml of Lung Homogenate, MEDIAN [1, 6]: 5.0 log10 CFU per milliliter
CFUs of BCG per ml of Lung Homogenate, individual mice M1-M5 [1, 6]: 5.1 log10 CFU per milliliter (2×) and 5.0 log10 CFU per milliliter and 4.6 log10 CFU per milliliter and 4.8 log10 CFU per milliliter
CFUs of BCG per ml of Lung Homogenate, MEAN [1, 7]: 5.5 log10 CFU per milliliter
CFUs of BCG per ml of Lung Homogenate, MEDIAN [1, 7]: 5.5 log10 CFU per milliliter
CFUs of BCG per ml of Lung Homogenate, individual mice M1-M5 [1, 7]: 5.4 log10 CFU per milliliter and 5.5 log10 CFU per milliliter (2×) and 5.7 log10 CFU per milliliter
CFUs of BCG per ml of Lung Homogenate, MEAN [1, 8]: 4.9 log10 CFU per milliliter
CFUs of BCG per ml of Lung Homogenate, MEDIAN [1, 8]: 5.0 log10 CFU per milliliter
CFUs of BCG per ml of Lung Homogenate, individual mice M1-M5 [1, 8]: 4.8 log10 CFU per milliliter (2×) and 5.0 log10 CFU per milliliter (2×) and 5.1 log10 CFU per milliliter
CFUs of BCG per ml of Lung Homogenate, MEAN [1, 9]: 4.6 log10 CFU per milliliter
CFUs of BCG per ml of Lung Homogenate, MEDIAN [1, 9]: 4.6 log10 CFU per milliliter
CFUs of BCG per ml of Lung Homogenate, individual mice M1-M5 [1, 9]: 4.5 log10 CFU per milliliter and 4.7 log10 CFU per milliliter (2×) and 4.6 log10 CFU per milliliter
CFUs of BCG per ml of Lung Homogenate, MEAN [1, 10]: 4.8 log10 CFU per milliliter
CFUs of BCG per ml of Lung Homogenate, MEDIAN [1, 10]: 4.8 log10 CFU per milliliter
CFUs of BCG per ml of Lung Homogenate, individual mice M1-M5 [1, 10]: 4.6 log10 CFU per milliliter and 4.4 log10 CFU per milliliter and 4.9 log10 CFU per milliliter and 5.1 log10 CFU per milliliter and 4.8 log10 CFU per milliliter
CFUs of BCG per ml of Lung Homogenate, MEAN [1, 11]: 5.3 log10 CFU per milliliter
CFUs of BCG per ml of Lung Homogenate, MEDIAN [1, 11]: 5.3 log10 CFU per milliliter
CFUs of BCG per ml of Lung Homogenate, individual mice M1-M5 [1, 11]: 5.4 log10 CFU per milliliter and 5.2 log10 CFU per milliliter
CFUs of BCG per ml of Lung Homogenate, MEAN [1, 12]: 5.0 log10 CFU per milliliter
CFUs of BCG per ml of Lung Homogenate, MEDIAN [1, 12]: 5.1 log10 CFU per milliliter
CFUs of BCG per ml of Lung Homogenate, individual mice M1-M5 [1, 12]: 5.1 log10 CFU per milliliter (3×) and 4.8 log10 CFU per milliliter (2×)
CFUs of BCG per ml of Lung Homogenate, MEAN [1, 13]: 5.0 log10 CFU per milliliter
CFUs of BCG per ml of Lung Homogenate, MEDIAN [1, 13]: 5.1 log10 CFU per milliliter
CFUs of BCG per ml of Lung Homogenate, individual mice M1-M5 [1, 13]: 5.1 log10 CFU per milliliter and 4.8 log10 CFU per milliliter and 5.3 log10 CFU per milliliter (2×) and 4.6 log10 CFU per milliliter
CFUs of BCG per ml of Lung Homogenate, MEAN [1, 14]: 4.9 log10 CFU per milliliter
CFUs of BCG per ml of Lung Homogenate, MEDIAN [1, 14]: 4.8 log10 CFU per milliliter
CFUs of BCG per ml of Lung Homogenate, individual mice M1-M5 [1, 14]: 4.8 log10 CFU per milliliter (2×) and 4.7 log10 CFU per milliliter and 5.1 log10 CFU per milliliter and 5.3 log10 CFU per milliliter
CFUs of BCG per ml of Lung Homogenate, MEAN [1, 15]: 5.4 log10 CFU per milliliter
CFUs of BCG per ml of Lung Homogenate, MEDIAN [1, 15]: 5.4 log10 CFU per milliliter
CFUs of BCG per ml of Lung Homogenate, individual mice M1-M5 [1, 15]: 5.3 log10 CFU per milliliter (2×) and 5.4 log10 CFU per milliliter and 5.5 log10 CFU per milliliter
IL-2 production (U/ml), M ± SD [2, 16]: 0.00 ± 0.00 U/ml
IL-2 production (U/ml), M ± SD ([2]; ConA 1 μg/ml, 0.1 μg/kg i/p): 0.25 ± 0.08 U/ml
IL-2 production (U/ml), M ± SD ([2]; ConA 1 μg/ml, 0.1 μg/kg per os): 0.10 ± 0.13 U/ml
IL-2 production (U/ml), M ± SD ([2]; ConA 1 μg/ml, 1.0 μg/kg i/p): 0.92 ± 0.06 U/ml
IL-2 production (U/ml), M ± SD ([2]; ConA 1 μg/ml, 1.0 μg/kg per os): 1.06 ± 0.37 U/ml
IL-2 production (U/ml), M ± SD [2, 17]: 0.25 ± 0.12 U/ml
IL-2 production (U/ml), M ± SD [2, 18]: 0.31 ± 0.15 U/ml
IL-2 production (U/ml), M ± SD ([2]; ConA 2 μg/ml, 0.01 μg/kg per os): 0.44 ± 0.11 U/ml
IL-2 production (U/ml), M ± SD ([2]; ConA 2 μg/ml, 0.1 μg/kg i/p): 1.40 ± 0.38 U/ml
IL-2 production (U/ml), M ± SD ([2]; ConA 2 μg/ml, 0.1 μg/kg per os): 1.00 ± 0.13 U/ml
IL-2 production (U/ml), M ± SD ([2]; ConA 2 μg/ml, 1.0 μg/kg i/p): 1.60 ± 0.15 U/ml
IL-2 production (U/ml), M ± SD ([2]; ConA 2 μg/ml, 1.0 μg/kg per os): 3.31 ± 0.01 U/ml
IL-2 production (U/ml), M ± SD ([2]; ConA 2 μg/ml, 10.0 μg/kg per os): 0.39 ± 0.12 U/ml
IL-2 production (U/ml), M ± SD ([2]; ConA 2 μg/ml, 100.0 μg/kg per os): 1.19 ± 0.30 U/ml
IFN-γ [3, 16]: 15499 pg/mL
IFN-γ ([3]; ConA 1 μg/ml, 0.1 μg/kg i/p): 13089 pg/mL
IFN-γ ([3]; ConA 1 μg/ml, 0.1 μg/kg per os): 15695 pg/mL
IFN-γ ([3]; ConA 1 μg/ml, 1.0 μg/kg i/p): 30951 pg/mL
IFN-γ ([3]; ConA 1 μg/ml, 1.0 μg/kg per os): 11411 pg/mL
IFN-γ [3, 17]: 8238 pg/mL
IFN-γ [3, 18]: 12990 pg/mL
IFN-γ ([3]; ConA 5 μg/ml, 0.01 μg/kg per os): 63227 pg/mL
IFN-γ ([3]; ConA 5 μg/ml, 0.1 μg/kg i/p): 87051 pg/mL

From patent US20090074815A1, “Immunomodulator Compounds as Vaccine Enhancers” (SCICLONE PHARMACEUTICALS, INC., priority 2005, published 2009)
